Reference: patent publication EP0378255B1, “2-Aminopyrimidinone derivatives” (JANSSEN PHARMACEUTICA N.V., priority 1989, dated 1990)
Read-outs that look alike come from different tables or passages of the source.

Key:
Format in all cases: in vivo
Tryptamine = assay: Combined Apomorphine, Tryptamine and Norepinephrine (ATN) test in rats: tryptamine part; details: Rattus norvegicus
Norepinephrine = assay: Combined Apomorphine, Tryptamine and Norepinephrine (ATN) test in rats: norepinephrine part; details: Rattus norvegicus; read-out: Combined ATN test in rats ED₅₀ values (NOR)
Procedure: (§1) Int. Pharmacodyn. Ther., 227, 238-253, 1977. Further the activity of the subject compounds as serotonin antagonists is evidenced by the experimental data obtained in the "Gastric Lesions induced by compound 48/80 in rats" test, described in U.S.-4,335,127. […] All tests were carried out following the procedures described in the cited references and the experimental data are shown in Table 8.

compound 48/80 [1] = assay: Gastric Lesions induced by compound 48/80 in rats (serotonin antagonism); details: Rattus norvegicus, read-out: Compound 48/80 tests ED₅₀ values Gastric lesions
Procedure: as §1

Apomorphine = assay: Combined Apomorphine, Tryptamine and Norepinephrine (ATN) test in rats: apomorphine part; details: Rattus norvegicus; read-out: Combined ATN test in rats ED₅₀ values (APO)
Wistar rats = assay: Sleep-wakefulness patterns in the rat (polygraphic EEG/EOG/EMG recording); details: for MEAN DURATION OF EPISODES PS / MEAN DURATION OF EPISODES SWS1 / MEAN DURATION OF EPISODES SWS2 / MEAN DURATION OF EPISODES W / NUMBER OF EPISODES PS / NUMBER OF EPISODES SWS1 / NUMBER OF EPISODES SWS2 / NUMBER OF EPISODES W: means ± SEM of 10 rats
Procedure: Under pentobarbital anesthesia (50 mg/kg i.p.) 10 adult male Wistar rats weighing 240 to 260 g were chronically implanted for standard polygraphic recording of electroencephalogram (EEG), electro-oculogram (EOG) and electromyogram (EMG). After a 8-10 day recovery period from surgery and habituation to the recording conditions ( 12 h light-dark schedule, light on at 9:00 am.), pharmacological tests were started. The animals received 0.04, 0.16 or 0.63 mg/kg of compound 39 dissolved in 1 mM tartaric acid and injected i.p. at the onset of the light period. A minimum of 3 recovery days was allowed between two treatments. Polygraphic recordings were scored visually and classified as being either wakefulness (W), light slow wave sleep (SWS1), deep slow wave sleep (SWS2) or paradoxical sleep (PS). Sleep-wakefulness parameters were analyzed for each of the two successive 4 h periods following the treatment and compared to baseline (vehicle injection under the same conditions). The amounts of sleep and wakefulness states were expressed as percentage of baseline recordings which represented means of two baseline values per animal. Statistical tests were performed by means of the two-tailed Student t-test.

compound 48/80 [2] = assay: Protection of Rats from compound 48/80 induced lethality (antihistaminic activity); details: Rattus norvegicus, read-out: Compound 48/80 tests ED₅₀ values Lethality
Procedure: as §1

[3] = convulsions, read-out: Combined ATN test in rats ED₅₀ values (TRY) convulsions
[4] = hyperaemia, read-out: Combined ATN test in rats ED₅₀ values (TRY) hyperaemia
[5] = 0-4h after treatment, 0.04 mg/kg i.p.
[6] = 0-4h after treatment, 0.16 mg/kg i.p.
[7] = 0-4h after treatment, 0.63 mg/kg i.p.
[8] = 4-8h after treatment, 0.04 mg/kg i.p.
[9] = 4-8h after treatment, 0.16 mg/kg i.p.
[10] = 4-8h after treatment, 0.63 mg/kg i.p.

## Cc1nc(NCc2ccccn2)n(C)c(=O)c1CCN1CCC(c2noc3cc(F)ccc23)CC1 [Compound 19]
Tryptamine; [3]
  ED50: 0.31 mg/kg
Tryptamine; [4]
  ED50: 0.0025 mg/kg
Norepinephrine
  ED50: 0.08 mg/kg
Compound 48/80 [1]
  ED50: 0.04 mg/kg
Apomorphine
  ED50: 0.08 mg/kg

## CC(=O)Nc1nc(C)c(CCN2CCC(C(=O)c3ccc(F)cc3)CC2)c(=O)n1C [Compound 34]
Tryptamine; [3]
  ED50: 0.31 mg/kg
Tryptamine; [4]
  ED50: 0.005 mg/kg
Norepinephrine
  ED50: 1.25 mg/kg
Compound 48/80 [1]
  ED50: 0.04 mg/kg
Apomorphine
  ED50: 0.31 mg/kg

## CNc1nc(C)c(CCN2CCC(=C(c3ccc(F)cc3)c3ccc(F)cc3)CC2)c(=O)n1C [Compound 39, 5-[2-[4-[bis(4-fluorophenyl)methylene]-1-piperidinyl]ethyl]-3,6-dimethyl-2-(methylamino)-4(3H)-pyrimidinone]
Wistar rats; [5]
  MEAN DURATION OF EPISODES PS: 2.1 ± 0.2 min
  MEAN DURATION OF EPISODES SWS1: 0.8 ± 0.0 min
  MEAN DURATION OF EPISODES SWS2: 4.7 ± 0.5 min
  MEAN DURATION OF EPISODES W: 2.6 ± 0.3 min
  NUMBER OF EPISODES PS: 4±1
  NUMBER OF EPISODES SWS1: 33±3
  NUMBER OF EPISODES SWS2: 32±3
  NUMBER OF EPISODES W: 26±3
Wistar rats; [6]
  MEAN DURATION OF EPISODES PS: 2.0 ± 0.3 min
  MEAN DURATION OF EPISODES SWS1: 0.9 ± 0.0 min
  MEAN DURATION OF EPISODES SWS2: 5.8 ± 0.5 min
  MEAN DURATION OF EPISODES W: 2.9 ± 0.3 min
  NUMBER OF EPISODES PS: 3±1
  NUMBER OF EPISODES SWS1: 28±2
  NUMBER OF EPISODES SWS2: 27±2
  NUMBER OF EPISODES W: 23±1
Wistar rats; [7]
  MEAN DURATION OF EPISODES PS: 2.2 ± 0.4 min
  MEAN DURATION OF EPISODES SWS1: 0.8 ± 0.0 min
  MEAN DURATION OF EPISODES SWS2: 5.9 ± 0.4 min
  MEAN DURATION OF EPISODES W: 2.7 ± 0.2 min
  NUMBER OF EPISODES PS: 3±1
  NUMBER OF EPISODES SWS1: 26±2
  NUMBER OF EPISODES SWS2: 27±2
  NUMBER OF EPISODES W: 22±1
Wistar rats; 0.04, 0.16 or 0.63 mg/kg i.p., two-tailed Student t-test
  doses giving significant effects: Significant effects were observed from the lowest dose upwards
Wistar rats; 0.04 to 0.63 mg/kg i.p.
  dose-related response: a clear dose-related response was obtained
Wistar rats; 0.04 to 0.63 mg/kg i.p. at the onset of the light period, 8 h recording period
  sleep-wakefulness changes (SWS2, W, SWS1, PS): dose-dependent increase of SWS2 combined with a dose-related deficit in W, SWS1 and PS
Wistar rats; 0.04 to 0.63 mg/kg i.p., summary of Table 7
  SWS2 episodes: duration and number: marked prolongation of SWS2 episodes, whereas the number of episodes was reduced
Wistar rats; [8]
  MEAN DURATION OF EPISODES PS: 1.9 ± 0.1 min
  MEAN DURATION OF EPISODES SWS1: 0.7 ± 0.0 min
  MEAN DURATION OF EPISODES SWS2: 3.5 ± 0.2 min
  MEAN DURATION OF EPISODES W: 2.0 ± 0.2 min
  NUMBER OF EPISODES PS: 13±1
  NUMBER OF EPISODES SWS1: 35±3
  NUMBER OF EPISODES SWS2: 41±3
  NUMBER OF EPISODES W: 26±2
Wistar rats; [9]
  MEAN DURATION OF EPISODES PS: 2.1 ± 0.1 min
  MEAN DURATION OF EPISODES SWS1: 0.7 ± 0.0 min
  MEAN DURATION OF EPISODES SWS2: 3.9 ± 0.3 min
  MEAN DURATION OF EPISODES W: 2.0 ± 0.3 min
  NUMBER OF EPISODES PS: 12±1
  NUMBER OF EPISODES SWS1: 35±2
  NUMBER OF EPISODES SWS2: 39±2
  NUMBER OF EPISODES W: 23±2
Wistar rats; [10]
  MEAN DURATION OF EPISODES PS: 2.1 ± 0.1 min
  MEAN DURATION OF EPISODES SWS1: 0.7 ± 0.0 min
  MEAN DURATION OF EPISODES SWS2: 3.7 ± 0.2 min
  MEAN DURATION OF EPISODES W: 1.9 ± 0.2 min
  NUMBER OF EPISODES PS: 12±1
  NUMBER OF EPISODES SWS1: 34±2
  NUMBER OF EPISODES SWS2: 40±2
  NUMBER OF EPISODES W: 26±2
Wistar rats; comparison with ritanserin
  effective dose, lower than that of ritanserin by: 10 fold
Wistar rats; doses of 0.04 and 0.16 mg/kg i.p.
  sleep-wakefulness response: significant sleep-wakefulness response

## CCNc1nc(C)c(CCN2CCN(c3noc4ccccc34)CC2)c(=O)n1C [Compound 69]
Tryptamine; [3]
  ED50: 0.31 mg/kg
Tryptamine; [4]
  ED50: 0.00125 mg/kg
Norepinephrine
  ED50: 0.31 mg/kg
Compound 48/80 [1]
  ED50: 0.00125 mg/kg
Compound 48/80 [2]
  ED50: 0.02 mg/kg
Apomorphine
  ED50: 0.08 mg/kg

## CCCNc1nc(C)c(CCN2CCN(c3nsc4ccccc34)CC2)c(=O)n1C [Compound 71]
Tryptamine; [3]
  ED50: 0.08 mg/kg
Tryptamine; [4]
  ED50: 0.005 mg/kg
Norepinephrine
  ED50: 1.25 mg/kg
Compound 48/80 [1]
  ED50: 0.63 mg/kg
Compound 48/80 [2]
  ED50: 0.16 mg/kg
Apomorphine
  ED50: 0.08 mg/kg

## Cc1nc2n(C)ccn2c(=O)c1CCN1CCC(c2noc3cc(F)ccc23)CC1 [Compound 77]
Tryptamine; [3]
  ED50: 0.04 mg/kg
Tryptamine; [4]
  ED50: ≤ 0.00063 mg/kg
Norepinephrine
  ED50: 0.16 mg/kg
Compound 48/80 [1]
  ED50: 0.04 mg/kg
Compound 48/80 [2]
  ED50: 0.005 mg/kg
Apomorphine
  ED50: 0.04 mg/kg

## Cc1nc2n(c(=O)c1CCN1CCC(c3noc4cc(F)ccc34)CC1)CCN2C [Compound 80]
Tryptamine; [3]
  ED50: 0.08 mg/kg
Tryptamine; [4]
  ED50: 0.00125 mg/kg
Norepinephrine
  ED50: 0.31 mg/kg
Compound 48/80 [1]
  ED50: 0.04 mg/kg
Compound 48/80 [2]
  ED50: 0.005 mg/kg
Apomorphine
  ED50: 0.08 mg/kg

## CC1=NN(C)c2nc(C)c(CCN3CCC(c4noc5cc(F)ccc45)CC3)c(=O)n2C1 [Compound 86]
Tryptamine; [3]
  ED50: 0.04 mg/kg
Tryptamine; [4]
  ED50: 0.00125 mg/kg
Norepinephrine
  ED50: 0.08 mg/kg
Compound 48/80 [1]
  ED50: 0.02 mg/kg
Apomorphine
  ED50: 0.04 mg/kg

## Cc1nc2n(C)nc(C)n2c(=O)c1CCN1CCC(c2noc3cc(F)ccc23)CC1 [Compound 88]
Tryptamine; [3]
  ED50: 0.08 mg/kg
Tryptamine; [4]
  ED50: 0.00125 mg/kg
Norepinephrine
  ED50: 0.16 mg/kg
Compound 48/80 [1]
  ED50: 0.04 mg/kg
Apomorphine
  ED50: 0.08 mg/kg
